Values quoted from earlier work in PMC3277211 (Journal of the American Chemical Society, 2011).

Key:
[1] = test system: P. aeruginosa PAO1; details: P. aeruginosa PAO1 wild type; included for comparison
[2] = test system: S. agalactiae COH-1; details: included for comparison
[3] = test system: C. glutamicum DSM 44475; details: included for comparison
[4] = test system: S. aureus NCTC 8325; details: S. aureus NCTC 8325 wild type; included for comparison
[5] = test system: R. opacus DSM 1069; details: included for comparison
[6] = test system: S. epidermidis RP62A; details: included for comparison
[7] = test system: S. pyogenes MGAS-1; details: included for comparison
[8] = test system: S. aureus P29S PAS8001; details: S. aureus NCTC 8325 SpsB(P29S) PAS8001; included for comparison
[9] = test system: S. pneumoniae R800; details: included for comparison
[10] = test system: P. aeruginosa P84L PAS2008; details: P. aeruginosa PAO1 LepB(P84L) PAS2008; included for comparison
[11] = test system: E. coli P84L PAS0260; details: E. coli MG1655 LepB(P84L) PAS0260; included for comparison

Substance: Arylomycin A-C16
- MIC [1]: >128 µg/mL
- MIC [2]: >128 µg/mL
- MIC [3]: 4 µg/mL
- MIC [4]: >128 µg/mL
- MIC [5]: 2 µg/mL
- MIC [6]: 0.25 µg/mL
- MIC [7]: 8 µg/mL
- MIC [8]: 2 µg/mL
- MIC [9]: 8 µg/mL
- MIC [10]: 8 µg/mL
- MIC [11]: 2 µg/mL
